Source: PubChem BioAssay AID651765 (The Scripps Research Institute Molecular Screening Center, 2012)
Active and inactive are the calls of the source. The rule behind the calls is not given here.

System: HTR5A counterscreen cells, luminescence, activation
Experiment: HTR5A agonist-like luminescent signal – cell-based, luminescence, dose response, set 2, counter-screen for OPRM1-OPRD1 heterodimer activator project, late-stage follow-up (AID 651765)

For `CCOC(=O)C1(CCc2ccccc2)CCCN(Cc2ccc(N3CCNC3=O)cc2)C1` (stereo not drawn), the EC50 was > 50 µM (inactive).
In the case of `CCOC(=O)C1CCN(CCC(=O)Nc2ccc(C)cc2)CC1`, the EC50 is reported as > 50 µM (inactive).
With `CCOC(=O)C1(Cc2ccccc2)CCCN(Cc2ccc(NC(C)=O)cc2)C1` (stereo not drawn) the EC50 was > 50 µM (inactive).
With `CCOC(=O)C1(Cc2ccc(OC)cc2)CCN(C(=O)c2ccc(N(C)C)cc2)CC1` the EC50 was > 50 µM (inactive).
For `CCOC(=O)C1(CCc2ccccc2)CCN(C(=O)Nc2ccc(C)cc2C)CC1`, the EC50 was > 50 µM (inactive).
`CCOC(=O)C1(CCOC)CCN(Cc2ccc(N(C)c3ccccc3)cc2)CC1` was tested, and the EC50 was > 50 µM (inactive).
`CCOC(=O)C1(CCOc2ccccc2)CCCN(Cc2ccc(NC(C)=O)cc2)C1` (stereo not drawn) was tested, and the EC50 was > 50 µM (inactive).
In the case of `CCOC(=O)C1(CCc2ccccc2)CCN(Cc2ccc(C#CC(C)(C)O)cc2)CC1`, the EC50 is reported as > 50 µM (inactive).
`O=C(O)C1CCCCC1C(=O)Nc1ccc(CN2CCCCC2)cc1` (stereo not drawn) was tested, and the EC50 was > 50 µM (inactive).
With `CCOC(=O)C1CCN(Cc2ccc(N(C)C)cc2)CC1` the EC50 was > 50 µM (inactive).
For `CCOC(=O)C1(CC2CC2)CCN(C(=O)c2ccc(N3CCCCC3)cc2)CC1`, the EC50 was > 50 µM (inactive).
`CCOC(=O)C1(CC2CC2)CCN(Cc2ccc(NC(C)=O)cc2)CC1` was tested, and the EC50 was > 50 µM (inactive).
`CCOC(=O)C1(Cc2cccc(OC)c2)CCCN(Cc2ccc(NC(C)=O)cc2)C1` (stereo not drawn) was tested, and the EC50 was > 50 µM (inactive).
`CCOC(=O)C1(CCc2ccccc2)CCN(Cc2ccc(OC)cc2)CC1` was tested, and the EC50 was > 50 µM (inactive).
In the case of `CCOC(=O)C1(CCc2ccccc2)CCN(Cc2ccncc2)CC1`, the EC50 is reported as > 50 µM (inactive).
With `CCOC(=O)C1(CCOC)CCN(Cc2ccc(NC(C)=O)cc2)CC1` the EC50 was > 50 µM (inactive).
For `CCOC(=O)C1CCN(Cc2ccc(NC(C)=O)cc2)CC1`, the EC50 was > 50 µM (inactive).
For `CCOC(=O)C1(CCOC)CCCN(Cc2ccc(NC(C)=O)cc2)C1` (stereo not drawn), the EC50 was > 50 µM (inactive).
`CCOC(=O)C1(CCc2ccccc2)CCN(Cc2ccc(O)cc2)CC1` was tested, and the EC50 was > 50 µM (inactive).
With `C=Cc1ccc(C(=O)N2CCC(CCc3ccccc3)(C(=O)OCC)CC2)cc1` the EC50 was > 50 µM (inactive).
With `CCOC(=O)C1(CCc2ccccc2)CCN(Cc2ccc(C(=O)OC)cc2)CC1` the EC50 was > 50 µM (inactive).
For `CCOC(=O)C1CCCCN1Cc1ccc(NC(C)=O)cc1` (stereo not drawn), the EC50 was > 50 µM (inactive).
For `CCOC(=O)C1CCN(C(=O)c2ccc(N(C)C)cc2)CC1`, the EC50 was > 50 µM (inactive).
With `C=Cc1ccc(C(=O)N2CCC(CCCc3ccccc3)(C(=O)OCC)CC2)cc1` the EC50 was > 50 µM (inactive).
With `CC(=O)Nc1ccc(CN2CCCC(CO)(CCc3ccccc3)C2)cc1` (stereo not drawn) the EC50 was > 50 µM (inactive).
With `CCOC(=O)C1(Cc2ccccc2Cl)CCN(Cc2ccc(NC(C)=O)cc2)CC1` the EC50 was > 50 µM (inactive).
`CCOC(=O)C1(CCc2ccccc2)CCN(Cc2c(O)cccc2OC)CC1` was tested, and the EC50 was > 50 µM (inactive).
In the case of `CCOC(=O)C1(Cc2ccccc2C)CCCN(Cc2ccc(NC(C)=O)cc2)C1` (stereo not drawn), the EC50 is reported as > 50 µM (inactive).
